Experimental data taken from US20260308158A1, “TARGETING RNAS ASSOCIATED WITH TAUOPATHIES WITH SMALL MOLECULES” (University of Florida Research Foundation, Incorporated, priority 2023, published 2026).
Like-named read-outs stand apart in the source and are kept apart here.

Experiments:
WT I17T mutant RNA = assay: Fluorescent binding affinity, WT I17T mutant RNA
Description: Fluorescent Binding Affinity Measurements. Binding assays were completed as previously described.^30 Briefly, the RNA of interest was folded in 1× Assay Buffer-1 (AB1: 8 mM Na2HPO4, pH 7.0, 185 mM NaCl, and 1 mM EDTA) by heating at 95° C. for 30 s followed by slowly cooling to room temperature. Bovine serum albumin (BSA) was then added to a final concentration of 40 μg/mL to afford 1× Assay Buffer-2 (AB2: 8 mM Na2HPO4, pH 7.0, 185 mM NaCl, 1 mM EDTA, and 40 μg/mL BSA). The RNA solution was serial diluted with 1×AB2. Then, compound of interest was added to the RNA solutions to a final concentration of 0.5 μM. […] Fluorescence intensity was measured using a Tecan Plate Reader (Gain: 100, Integration time: 40 μs). […] The change in fluorescence of the small molecule was calculated by its comparison to samples lacking RNA. Binding affinity was calculated using Equation 1, as previously described:^30
where I and I0 are the measured fluorescence intensity of the compound with or without RNA, respectively, Δε is the difference between the fluorescence intensity with the infinite concentration of RNA and the fluorescence intensity without RNA, [SM]0 and [RNA]0 are the concentrations of the small molecule (SM) and RNA, respectively, and Kd is the dissociation constant.

WT model RNA = assay: Optical melting, WT RNA; type: binding; settings: 2 at 1.5 μM
Description: Optical Melting Experiments. The thermal stabilities of WT, DDPAC, and DDPAC+I17T model RNAs were analyzed by optical melting in the presence or absence of compound 1 or 2 as previously described.^18 The RNAs (2 μM) were heated to 95° C. in 1×PBS buffer and slowly cooled to room temperature. The samples were then cooled to 15° C. in the presence of compound 1 (10 μM; 0.1% (v/v) DMSO), 2 (1.5 μM; 0.1% (v/v) DMSO) or vehicle (0.1% (v/v) DMSO) and then heated to 85° C. at a rate of 1° C. per min. Absorbance as a function of temperature was measured at 260 nm using a Beckman Coulter DU800 UV/vis spectrophotometer. Melting curves were fitted with MeltWin 3.5.^31

[1] = tested on: DDPAC MAPT mini-gene pre-mRNA; assay: Chem-CLIP / C-Chem-CLIP in HeLa cells transfected with DDPAC mini-gene; type: cell-based; settings: HeLa, DDPAC mini-gene
Description: Measuring Cellular Occupancy by Chem-CLIP and C-Chem-CLIP. LAN5 cells were grown to ~80% confluency in 100 mm diameter dishes. HeLa cells were transfected as described in the Luciferase Reporter Assay to Study Exon 10 Alternative Splicing except they were re-plated in 100 mm diameter dishes and grown to ~80% confluency (~1 day). The cells were then treated with 1.5 μM of 3 or 4 for 12 h. For C-Chem-CLIP, dilutions of competing compounds 1 or 2 were pre-incubated with cells for 12 h prior to adding 3. After addition of 3, the cells were incubated for an additional 12 h. After the treatment period, whether for Chem-CLIP or C-Chem-CLIP studies, the cells were washed with 10 mL of 1×DPBS. Ice-cold 1×DPBS (10 mL) was then added to the plate followed by irradiation with 365 nm light in a UV Stratalinker 2400 (Stratagene). Cells were scraped with a cell scraper, transferred to a 15 mL conical vial, and collected by centrifugation. Total RNA was extracted using TRIzol LS Reagent (Invitrogen) per the manufacturer's protocol. […]
RT-qPCR was performed on RNA samples before and after pull-down as described in Real-Time Quantitative PCR to enable calculation of fold enrichment in the pulled down samples. Relative fold enrichment of tau pre-mRNA was measured using Equation 3: […]

[2] = tested on: dually labeled DDPAC MAPT SRE RNA / U1 snRNA mimic; assay: U1 snRNA mimic FRET-based quenching assay; type: biochemical
Description: U1 snRNA Mimic Quenching Assay. A 200 nM aliquot of dually labeled model of the DDPAC RNA (5′-FAM-[…]-BHQ-1-3′ (SEQ ID NO: 5); where FAM is 5 (6)-Carboxyfluorescein and BHQ-1 is black hole quencher) was folded in 1× Assay Buffer as described in Fluorescent Binding Affinity Measurements. Compound of interest at the indicated concentration was added, and the samples were incubated at room temperature in the dark for 15 min. A U1 snRNA mimic with sequence 5′-[…]-3′ (SEQ ID NO: 6) was then added to the samples to a final concentration of 20 μM. The fluorescence intensity of FAM was measured as a function of time for 1 h using a […] plate reader, with excitation and emission wavelengths of 485 and 525 nm, respectively.

[3] = Plasma and brain exposure in mice; type: in vivo, C57BL/6J mouse; settings: mouse, po, 100 mg/kg p.o., C57BL/6J mice
Description: Quantitation of 2 in Mouse Plasma and Brain. Male C57BL/6J mice (n=3 per time point; 5-7 weeks) were orally administered with 2 (100 mg/kg) in a formulation of DMSO/Tween-80/H2O (5/5/90). After 2, 12, 24, and 48 h, mice were euthanized, and blood and brain were collected. Brains were immediately frozen. Blood was centrifuged to generate plasma and immediately frozen. On the day of analysis, brains were homogenized, mixed with a 5-times volume of acetonitrile, and filtered. The plasma was also filtered. Drug levels were determined by mass spectrometry using an ABSciex 5500 mass spectrometer with multiple reaction monitoring. Compound 2 was detected using the mass transition 435->236.

Kd (estimated; no saturable binding) (WT I17T mutant RNA): > 50000 nM
lower IC50 compared with 1 ([2]; end-point FRET assay (FIG. 15C), 2 vs 1): around 5 fold
IC50 ([2]; end-point measurement (5 min), read-out: IC50, reduction in FAM fluorescence (U1 snRNA mimic binding)): 900 ± 200 nM
concentration at 48 h ([3]; brain, read-out: brain concentration): 2900 ± 1600 nM
concentration at 48 h ([3]; plasma, read-out: plasma concentration): 500 ± 300 nM
SMILES: COc1cc(N)ncc1CCCN(C)CCCn1cnc2c3ccccc3n(C)c2c1=O [Compound 2, 3-(3-((3-(6-amino-4-methoxypyridin-3-yl)propyl)(methyl)amino)propyl)-5-methyl-3,5-dihydro-4H-pyrimido[5,4-b]indol-4-one]
increase of Tm (WT model RNA): 0.76±0.1 °C
competition of the interaction of 3 with reporter [1]: competed dose dependently
more potent than 1 in multiple biochemical assays ([2]; 2 vs 1, multiple biochemical assays): at least 6 fold
rate of increase of FAM signal (unfolding by U1 snRNA mimic) ([2]; compound 10 μM, vehicle 0.49 min-1): 0.37 min⁻¹
